Measurements reported in ChEMBL document CHEMBL4414679, “Discovery of 4,6-pyrimidinediamine derivatives as novel dual EGFR/FGFR inhibitors aimed EGFR/FGFR1-positive NSCLC” (Eur J Med Chem, 2020).
The source made the active and inactive calls. The rule behind the calls is not given here.

What was measured:
[1] = Induction of apoptosis in gefitinib-insensitive human HCC827GR cells assessed as late apoptotic cells at 5 uM measured after 24 hrs by Annexin-V/propidium iodide staining-based flow cytometric analysis (reference value: 1.5%); format: functional
[2] = target: Platelet-derived growth factor receptor alpha (Homo sapiens) (UniProt P16234); assay: Inhibition of N-terminal GST tagged human PDGFRalpha cytoplasmic domain (550 to 1089 AA) expressed in baculovirus at 10 uM using FAM-labelled peptide as substrate pre-incubated for 10 mins followed by substrate addition by mobility shift assay relative to control
[3] = test system: NCI-H226; assay: Induction of apoptosis in human NCI-H226 cells assessed as late apoptotic cells at 5 uM measured after 24 hrs by Annexin-V/propidium iodide staining-based flow cytometric analysis (reference value: 2.8%); format: functional
[4] = target: Fibroblast growth factor receptor 3 (Homo sapiens) (UniProt P22607); assay: Inhibition of N-terminal GST tagged human FGFR3 cytoplasmic domain (436 to 806 AA) expressed in baculovirus at 10 uM using FAM-labelled peptide as substrate pre-incubated for 10 mins followed by substrate addition by mobility shift assay relative to control
[5] = test system: Homo sapiens; assay: Antitumor activity against human HCC827GR cells xenografted in BALB/c nude mouse assessed as reduction in tumor volume at 15 mg/kg, ip dosed measured every 2 days upto 25 days; format: functional, organism-based
[6] = target: Wee1-like protein kinase (Homo sapiens) (UniProt P30291); assay: Inhibition of N-terminal GST tagged human WEE1 catalytic domain (215 to 646 AA) expressed in baculovirus at 10 uM using FAM-labelled peptide as substrate pre-incubated for 10 mins followed by substrate addition by mobility shift assay relative to control
[7] = target: T1, Fibroblast growth factor receptor 1 (Homo sapiens, UniProt P11362); assay: Inhibition of N-terminal GST-tagged human FGFR1 expressed in baculovirus at 10 uM using FAM-labelled peptide as substrate pre-incubated for 10 mins followed by substrate addition by mobility shift assay relative to control
Target sequence in this assay (P11362 22-822 limits assumed): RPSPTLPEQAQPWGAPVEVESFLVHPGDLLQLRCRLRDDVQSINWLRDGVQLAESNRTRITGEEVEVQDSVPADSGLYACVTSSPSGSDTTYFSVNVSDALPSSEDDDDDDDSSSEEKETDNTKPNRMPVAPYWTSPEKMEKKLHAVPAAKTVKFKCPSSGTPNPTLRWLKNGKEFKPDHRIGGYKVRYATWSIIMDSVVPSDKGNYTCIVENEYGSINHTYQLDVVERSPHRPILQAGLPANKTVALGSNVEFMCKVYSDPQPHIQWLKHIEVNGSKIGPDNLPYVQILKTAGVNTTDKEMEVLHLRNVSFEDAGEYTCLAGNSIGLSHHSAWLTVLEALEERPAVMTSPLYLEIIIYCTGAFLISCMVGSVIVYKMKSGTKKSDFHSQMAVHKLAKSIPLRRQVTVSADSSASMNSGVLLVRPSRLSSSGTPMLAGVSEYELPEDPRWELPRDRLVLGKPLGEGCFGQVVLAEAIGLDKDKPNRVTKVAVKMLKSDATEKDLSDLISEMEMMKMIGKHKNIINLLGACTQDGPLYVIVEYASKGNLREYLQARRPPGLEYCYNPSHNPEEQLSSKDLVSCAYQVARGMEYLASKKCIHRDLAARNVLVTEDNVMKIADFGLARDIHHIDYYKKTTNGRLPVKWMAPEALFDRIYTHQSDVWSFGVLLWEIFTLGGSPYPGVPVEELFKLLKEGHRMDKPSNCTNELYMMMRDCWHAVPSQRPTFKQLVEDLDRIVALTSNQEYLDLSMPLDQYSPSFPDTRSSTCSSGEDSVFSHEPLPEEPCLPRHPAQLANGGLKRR

[8] = target: Inhibitor of nuclear factor kappa-B kinase subunit beta (Homo sapiens) (UniProt O14920); assay: Inhibition of N-terminal GST tagged truncated human IKKbeta (1 to 662 AA) expressed in baculovirus at 10 uM using FAM-labelled peptide as substrate pre-incubated for 10 mins followed by substrate addition by mobility shift assay relative to control
[9] = Antitumor activity against human HCC827GR cells xenografted in BALB/c nude mouse assessed as reduction in tumor weight at 15 mg/kg, ip dosed every 2 days (reference value: 0.82 +/- 0.06 g); format: functional
[10] = Induction of apoptosis in gefitinib-insensitive human HCC827GR cells assessed as necrotic cells at 1 uM measured after 24 hrs by Annexin-V/propidium iodide staining-based flow cytometric analysis (reference value: 5.8%); format: functional
[11] = MRT in Sprague-Dawley rat at 30 mg/kg, po measured upto 24 hrs by UPLC-MS/MS; format: ADME, organism-based; conditions: in vivo
[12] = test system: NCI-H1581; assay: Antiproliferative activity against human NCI-H1581 cells assessed as inhibition of cell growth at 10 uM incubated for 48 hrs by MTT assay relative to control; format: functional; conditions: NCI-H1581, 48 h
[13] = target: Vascular endothelial growth factor receptor 1 (Homo sapiens) (UniProt P17948); assay: Inhibition of N-terminal GST tagged human FLT1 cytoplasmic domain (781 to 1338 AA) expressed in baculovirus at 10 uM using FAM-labelled peptide as substrate pre-incubated for 10 mins followed by substrate addition by mobility shift assay relative to control
[14] = target: T2, Epidermal growth factor receptor (Homo sapiens, UniProt P00533); assay: Inhibition of N-terminal GST-tagged human EGFR cytoplasmic domain (669-1210 AA) expressed in baculovirus at 10 uM using FAM-labelled peptide as substrate pre-incubated for 10 mins followed by substrate addition by mobility shift assay relative to control
[15] = target: Cyclin-dependent kinase 1/cyclin B1 (Homo sapiens) (UniProt P06493+P14635); assay: Inhibition of CDC2/cyclinB1 (unknown origin) at 10 uM using FAM-labelled peptide as substrate pre-incubated for 10 mins followed by substrate addition by mobility shift assay relative to control; format: protein-complex assay
[16] = Induction of apoptosis in gefitinib-insensitive human HCC827GR cells assessed as early apoptotic cells at 1 uM measured after 24 hrs by Annexin-V/propidium iodide staining-based flow cytometric analysis (reference value: 1.9%); format: functional
[17] = Induction of apoptosis in gefitinib-insensitive human HCC827GR cells assessed as late apoptotic cells at 10 uM measured after 24 hrs by Annexin-V/propidium iodide staining-based flow cytometric analysis (reference value: 1.5%); format: functional
[18] = Induction of apoptosis in gefitinib-insensitive human HCC827GR cells assessed as late apoptotic cells at 1 uM measured after 24 hrs by Annexin-V/propidium iodide staining-based flow cytometric analysis (reference value: 1.5%); format: functional
[19] = test system: NCI-H226; assay: Induction of apoptosis in human NCI-H226 cells assessed as necrotic cells at 10 uM measured after 24 hrs by Annexin-V/propidium iodide staining-based flow cytometric analysis (reference value: 3%); format: functional
[20] = Volume of distribution in Sprague-Dawley rat at 30 mg/kg, po measured upto 24 hrs by UPLC-MS/MS; format: ADME, organism-based; conditions: in vivo
[21] = target: T2, Epidermal growth factor receptor; assay: Inhibition of EGF-induced EGFR phosphorylation in serum-starved human PC9 cells upto 10 uM incubated for 1 hr by Western blot analysis
[22] = test system: NCI-H1581; assay: Antiproliferative activity against human NCI-H1581 cells incubated for 48 hrs by MTT assay; format: functional, cell-based; conditions: NCI-H1581, 48 h
[23] = test system: HCC827; assay: Antiproliferative activity against human HCC827 cells assessed as inhibition of cell growth at 10 uM incubated for 48 hrs by MTT assay relative to control; format: functional; conditions: HCC827, 48 h
[24] = test system: NCI-H226; assay: Inhibition of colony formation in human NCI-H226 cells measured after 24 hrs by crystal violet staining based assay; format: functional, cell-based
[25] = test system: NCI-H226; assay: Induction of apoptosis in human NCI-H226 cells assessed as necrotic cells at 1 uM measured after 24 hrs by Annexin-V/propidium iodide staining-based flow cytometric analysis (reference value: 3%); format: functional
[26] = target: Cyclin-dependent kinase 5/CDK5 activator 1 (Homo sapiens) (UniProt Q00535+Q15078); assay: Inhibition of CDK5/p35 (unknown origin) at 10 uM using FAM-labelled peptide as substrate pre-incubated for 10 mins followed by substrate addition by mobility shift assay relative to control; format: protein-complex assay
[27] = target: T2, Epidermal growth factor receptor; assay: Inhibition of EGFR in gefitinib-insensitive human HCC827GR cells assessed as reduction in EGF-induced EGFR phosphorylation upto 10 uM measured after 2 hrs by western blot analysis
[28] = Induction of apoptosis in gefitinib-insensitive human HCC827GR cells assessed as viable cells at 5 uM measured after 24 hrs by Annexin-V/propidium iodide staining-based flow cytometric analysis (reference value: 90.8%); format: functional; conditions: read-out: Activity
[29] = target: T1, Fibroblast growth factor receptor 1; assay: Inhibition of N-terminal GST-tagged human FGFR1 cytoplasmic domain (398-822 AA) expressed in baculovirus using FAM-labelled peptide as substrate pre-incubated for 10 mins followed by substrate addition by mobility shift assay
Target sequence in this assay (P11362 whole entry, the tested form may be a part): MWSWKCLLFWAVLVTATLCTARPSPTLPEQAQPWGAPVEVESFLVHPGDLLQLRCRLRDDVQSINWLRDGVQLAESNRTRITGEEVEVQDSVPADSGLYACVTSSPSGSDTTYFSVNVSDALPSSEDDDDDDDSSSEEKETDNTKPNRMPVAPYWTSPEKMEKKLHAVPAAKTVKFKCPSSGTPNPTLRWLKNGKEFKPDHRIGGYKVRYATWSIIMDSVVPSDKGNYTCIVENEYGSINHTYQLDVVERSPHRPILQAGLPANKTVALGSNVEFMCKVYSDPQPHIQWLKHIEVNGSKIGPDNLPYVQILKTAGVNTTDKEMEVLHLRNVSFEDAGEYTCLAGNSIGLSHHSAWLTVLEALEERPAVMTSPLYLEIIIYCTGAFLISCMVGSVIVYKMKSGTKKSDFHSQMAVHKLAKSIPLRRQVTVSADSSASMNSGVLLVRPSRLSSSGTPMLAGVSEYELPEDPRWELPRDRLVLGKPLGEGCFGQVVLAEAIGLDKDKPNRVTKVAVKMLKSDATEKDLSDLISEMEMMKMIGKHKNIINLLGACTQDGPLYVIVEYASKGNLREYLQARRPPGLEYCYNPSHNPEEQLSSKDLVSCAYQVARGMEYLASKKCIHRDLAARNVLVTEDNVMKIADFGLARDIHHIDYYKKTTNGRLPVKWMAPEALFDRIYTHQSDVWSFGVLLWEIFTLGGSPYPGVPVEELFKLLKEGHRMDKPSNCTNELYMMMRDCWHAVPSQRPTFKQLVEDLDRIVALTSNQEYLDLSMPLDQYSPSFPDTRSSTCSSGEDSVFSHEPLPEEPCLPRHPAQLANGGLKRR

[30] = species: Homo sapiens; assay: Inhibition of colony formation in gefitinib-insensitive human HCC827GR cells measured after 24 hrs by crystal violet staining based assay; format: functional

T2 sequence (P00533 whole entry, the tested form may be a part): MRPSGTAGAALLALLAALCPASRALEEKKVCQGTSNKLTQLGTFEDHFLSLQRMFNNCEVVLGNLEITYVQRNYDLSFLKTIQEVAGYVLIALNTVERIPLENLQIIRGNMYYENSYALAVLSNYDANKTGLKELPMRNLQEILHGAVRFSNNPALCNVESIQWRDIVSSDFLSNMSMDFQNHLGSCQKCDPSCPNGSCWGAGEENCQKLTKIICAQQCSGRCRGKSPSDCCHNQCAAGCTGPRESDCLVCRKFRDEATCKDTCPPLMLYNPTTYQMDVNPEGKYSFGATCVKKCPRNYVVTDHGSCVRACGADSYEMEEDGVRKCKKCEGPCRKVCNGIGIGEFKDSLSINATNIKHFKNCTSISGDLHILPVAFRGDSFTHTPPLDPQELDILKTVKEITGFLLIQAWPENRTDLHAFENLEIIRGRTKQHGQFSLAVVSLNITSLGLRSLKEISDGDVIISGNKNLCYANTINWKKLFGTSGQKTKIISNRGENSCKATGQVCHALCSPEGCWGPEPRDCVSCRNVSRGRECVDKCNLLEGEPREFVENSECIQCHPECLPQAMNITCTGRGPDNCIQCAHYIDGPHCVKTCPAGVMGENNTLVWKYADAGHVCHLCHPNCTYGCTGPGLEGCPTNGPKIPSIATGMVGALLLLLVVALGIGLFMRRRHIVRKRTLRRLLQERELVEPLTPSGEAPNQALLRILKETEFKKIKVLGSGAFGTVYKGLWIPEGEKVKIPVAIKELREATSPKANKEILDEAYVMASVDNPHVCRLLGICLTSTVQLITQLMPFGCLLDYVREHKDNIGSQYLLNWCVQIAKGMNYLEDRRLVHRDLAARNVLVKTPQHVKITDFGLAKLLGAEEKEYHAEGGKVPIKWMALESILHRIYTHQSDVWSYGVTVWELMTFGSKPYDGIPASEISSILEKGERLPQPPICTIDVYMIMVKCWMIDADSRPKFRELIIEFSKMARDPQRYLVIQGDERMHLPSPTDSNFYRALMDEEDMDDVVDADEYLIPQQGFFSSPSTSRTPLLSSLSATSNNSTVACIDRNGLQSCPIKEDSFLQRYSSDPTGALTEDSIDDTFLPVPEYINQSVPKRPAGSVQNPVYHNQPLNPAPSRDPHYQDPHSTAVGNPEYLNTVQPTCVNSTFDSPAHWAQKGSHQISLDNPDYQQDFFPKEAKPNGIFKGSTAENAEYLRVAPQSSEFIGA
Chain of Wee1-like protein kinase (Homo sapiens) (P30291 whole entry, looked up, the tested form may be a part): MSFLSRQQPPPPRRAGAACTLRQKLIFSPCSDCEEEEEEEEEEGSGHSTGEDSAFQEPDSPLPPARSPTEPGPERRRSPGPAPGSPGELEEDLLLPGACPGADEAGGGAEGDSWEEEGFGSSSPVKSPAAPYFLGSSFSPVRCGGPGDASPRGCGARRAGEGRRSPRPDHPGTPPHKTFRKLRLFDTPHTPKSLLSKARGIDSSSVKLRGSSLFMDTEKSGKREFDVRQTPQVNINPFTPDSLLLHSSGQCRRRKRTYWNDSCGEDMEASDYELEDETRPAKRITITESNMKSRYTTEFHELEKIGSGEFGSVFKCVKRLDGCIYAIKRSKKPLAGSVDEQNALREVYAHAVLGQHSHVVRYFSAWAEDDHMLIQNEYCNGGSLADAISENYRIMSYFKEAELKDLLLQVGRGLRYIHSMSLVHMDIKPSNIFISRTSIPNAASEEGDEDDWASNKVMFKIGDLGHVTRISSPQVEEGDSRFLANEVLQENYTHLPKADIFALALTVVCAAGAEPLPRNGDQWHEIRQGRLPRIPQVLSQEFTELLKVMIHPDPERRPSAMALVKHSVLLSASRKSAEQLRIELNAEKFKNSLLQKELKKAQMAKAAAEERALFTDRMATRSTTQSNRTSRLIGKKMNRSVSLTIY
Chain of Inhibitor of nuclear factor kappa-B kinase subunit beta (Homo sapiens) (O14920 whole entry, the tested form may be a part): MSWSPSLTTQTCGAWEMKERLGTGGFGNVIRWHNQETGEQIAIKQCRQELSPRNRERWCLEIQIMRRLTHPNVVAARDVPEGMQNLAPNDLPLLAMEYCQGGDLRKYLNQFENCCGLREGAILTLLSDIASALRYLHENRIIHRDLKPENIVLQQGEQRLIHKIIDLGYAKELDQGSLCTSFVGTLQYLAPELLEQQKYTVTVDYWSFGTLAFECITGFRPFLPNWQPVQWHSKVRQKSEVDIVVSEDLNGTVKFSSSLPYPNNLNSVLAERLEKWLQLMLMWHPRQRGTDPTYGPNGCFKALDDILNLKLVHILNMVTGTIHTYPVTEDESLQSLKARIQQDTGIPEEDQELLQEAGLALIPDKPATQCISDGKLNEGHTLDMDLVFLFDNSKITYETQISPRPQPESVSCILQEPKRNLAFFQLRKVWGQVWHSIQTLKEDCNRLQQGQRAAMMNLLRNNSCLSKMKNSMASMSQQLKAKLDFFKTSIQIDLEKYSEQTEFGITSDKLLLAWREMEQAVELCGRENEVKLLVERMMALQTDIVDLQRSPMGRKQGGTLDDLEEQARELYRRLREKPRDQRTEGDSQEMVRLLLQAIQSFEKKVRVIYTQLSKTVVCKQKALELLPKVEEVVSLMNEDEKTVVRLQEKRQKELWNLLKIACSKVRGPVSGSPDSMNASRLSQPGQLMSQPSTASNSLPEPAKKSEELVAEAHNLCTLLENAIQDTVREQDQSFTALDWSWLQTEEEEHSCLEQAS
Chain of Cyclin-dependent kinase 5/CDK5 activator 1 (Homo sapiens) (Q00535 whole entry): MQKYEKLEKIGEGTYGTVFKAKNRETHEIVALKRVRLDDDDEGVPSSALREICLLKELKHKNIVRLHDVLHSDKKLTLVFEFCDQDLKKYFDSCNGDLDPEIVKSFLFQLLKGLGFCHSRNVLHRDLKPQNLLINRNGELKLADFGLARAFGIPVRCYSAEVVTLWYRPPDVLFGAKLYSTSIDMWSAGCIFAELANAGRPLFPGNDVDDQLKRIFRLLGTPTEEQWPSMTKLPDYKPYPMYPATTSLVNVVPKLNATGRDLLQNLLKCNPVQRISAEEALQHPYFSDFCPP
Chain of Cyclin-dependent kinase 5/CDK5 activator 1 (Homo sapiens) (Q15078 99-307 partner limits assumed): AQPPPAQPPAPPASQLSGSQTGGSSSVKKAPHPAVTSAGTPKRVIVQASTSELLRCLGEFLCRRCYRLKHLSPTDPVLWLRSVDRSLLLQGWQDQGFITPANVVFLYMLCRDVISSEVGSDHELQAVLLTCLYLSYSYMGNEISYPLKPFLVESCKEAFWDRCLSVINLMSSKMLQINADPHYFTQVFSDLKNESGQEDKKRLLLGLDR

`COc1ccc(OC)c(Nc2cc(NC(=O)Nc3c(Cl)cccc3Cl)ncn2)c1` gave an Activity [1] of 25.3%, an inhibition [2] of 48.1% and an Activity [3] of 8.9%. For the same compound, the inhibition [4] was 15.8%, the Activity [5] was “Active” and the inhibition [6] was 28%. It also gave an inhibition [7] of 85.2%, an inhibition [8] of -0.73% and an Activity [9] of 0.41 g. It also gave an Activity [10] of 3.6%, an MRT [11] of 6.73 h and an inhibition at 10 µM [12] of 93.1%. It also gave an inhibition [13] of 27.6%, an inhibition [14] of 92.7% and an inhibition [15] of -9.78%. For the same compound, the Activity [16] was 0.9%, the Activity [17] was 30.1% and the Activity [18] was 16%. The Activity [19] was 11.8%, the Vd [20] was 0.03 L/kg and the inhibition [21] was “Active”. For the same compound, the IC50 [22] was 2530 nM, the inhibition at 10 µM [23] was 94% and the inhibition [24] was “Dose-dependent effect”. The Activity [25] was 5.8%, the inhibition [26] was -2.81% and the inhibition [27] was “Active”. The viability at 5 µM [28] was 68.9%, the IC50 [29] was 808 nM and the inhibition [30] was “Dose-dependent effect”.
